Results as given in ChEMBL document CHEMBL1201862, “PubChem BioAssay data set” (2004).
The source made the active and inactive calls.

How the values were obtained:
HEK293 [1] = test: cells; type: functional, cell-based; details: Homo sapiens
[2] = target: T1, Nuclear receptor subfamily 0 group B member 1 (Homo sapiens, UniProt P51843); test: Luminescence-based cell-based high throughput dose response assay for inhibitors of the orphan nuclear receptor subfamily 0, group B, member 1 (DAX1; NR0B1). [Related pubchem assays (depositor defined):AID504766, AID504790]; type: functional
T1 sequence (P51843 whole entry): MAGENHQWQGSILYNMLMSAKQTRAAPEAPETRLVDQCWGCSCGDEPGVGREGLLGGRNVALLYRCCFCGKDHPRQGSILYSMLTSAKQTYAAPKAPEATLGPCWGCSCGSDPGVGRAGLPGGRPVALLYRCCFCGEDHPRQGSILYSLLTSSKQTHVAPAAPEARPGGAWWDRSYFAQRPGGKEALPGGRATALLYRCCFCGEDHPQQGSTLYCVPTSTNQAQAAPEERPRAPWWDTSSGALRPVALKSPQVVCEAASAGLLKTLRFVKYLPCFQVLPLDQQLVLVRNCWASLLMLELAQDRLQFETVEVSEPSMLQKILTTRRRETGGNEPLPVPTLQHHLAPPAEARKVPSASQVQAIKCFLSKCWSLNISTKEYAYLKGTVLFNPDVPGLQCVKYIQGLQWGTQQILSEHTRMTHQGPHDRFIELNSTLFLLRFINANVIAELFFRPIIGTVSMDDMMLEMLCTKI

[3] = target: Ras and Rab interactor 1/Tyrosine-protein kinase ABL1 (Homo sapiens, UniProt P00519+Q13671); type: functional;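 note: biochemical TR-FRET dose-response test measuring inhibition of binding between Rin1 and Abl proteins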
Ras and Rab interactor 1/Tyrosine-protein kinase ABL1, sequence (P00519 whole entry): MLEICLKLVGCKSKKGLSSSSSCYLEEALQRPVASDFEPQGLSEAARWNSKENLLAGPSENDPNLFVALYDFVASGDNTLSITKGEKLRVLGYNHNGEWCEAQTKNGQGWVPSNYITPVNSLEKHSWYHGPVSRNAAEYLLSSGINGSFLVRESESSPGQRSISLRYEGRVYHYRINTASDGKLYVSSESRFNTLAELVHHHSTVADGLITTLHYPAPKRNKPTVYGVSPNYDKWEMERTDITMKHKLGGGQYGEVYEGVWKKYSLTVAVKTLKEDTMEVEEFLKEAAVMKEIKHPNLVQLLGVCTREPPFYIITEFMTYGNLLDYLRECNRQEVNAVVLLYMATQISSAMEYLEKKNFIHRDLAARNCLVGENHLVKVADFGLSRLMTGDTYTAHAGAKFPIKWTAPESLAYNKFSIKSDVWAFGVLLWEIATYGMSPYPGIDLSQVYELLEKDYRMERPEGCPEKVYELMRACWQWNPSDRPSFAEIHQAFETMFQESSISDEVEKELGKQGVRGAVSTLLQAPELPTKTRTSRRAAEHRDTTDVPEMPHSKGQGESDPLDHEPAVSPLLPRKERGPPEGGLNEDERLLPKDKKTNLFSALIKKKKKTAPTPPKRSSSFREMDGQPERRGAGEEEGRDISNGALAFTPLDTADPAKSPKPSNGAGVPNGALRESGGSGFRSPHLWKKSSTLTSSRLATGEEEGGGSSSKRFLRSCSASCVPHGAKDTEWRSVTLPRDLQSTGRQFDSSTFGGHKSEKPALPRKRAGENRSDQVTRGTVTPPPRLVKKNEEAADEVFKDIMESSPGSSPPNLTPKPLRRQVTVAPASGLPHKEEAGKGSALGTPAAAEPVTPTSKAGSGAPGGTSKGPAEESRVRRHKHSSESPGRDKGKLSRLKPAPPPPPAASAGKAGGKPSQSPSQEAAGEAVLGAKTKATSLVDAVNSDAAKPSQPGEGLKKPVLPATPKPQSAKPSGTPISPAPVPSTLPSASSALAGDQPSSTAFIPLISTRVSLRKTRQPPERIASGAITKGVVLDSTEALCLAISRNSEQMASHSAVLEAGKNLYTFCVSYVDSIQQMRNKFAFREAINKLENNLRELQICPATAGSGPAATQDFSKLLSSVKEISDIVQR
Ras and Rab interactor 1/Tyrosine-protein kinase ABL1, sequence (Q13671 whole entry): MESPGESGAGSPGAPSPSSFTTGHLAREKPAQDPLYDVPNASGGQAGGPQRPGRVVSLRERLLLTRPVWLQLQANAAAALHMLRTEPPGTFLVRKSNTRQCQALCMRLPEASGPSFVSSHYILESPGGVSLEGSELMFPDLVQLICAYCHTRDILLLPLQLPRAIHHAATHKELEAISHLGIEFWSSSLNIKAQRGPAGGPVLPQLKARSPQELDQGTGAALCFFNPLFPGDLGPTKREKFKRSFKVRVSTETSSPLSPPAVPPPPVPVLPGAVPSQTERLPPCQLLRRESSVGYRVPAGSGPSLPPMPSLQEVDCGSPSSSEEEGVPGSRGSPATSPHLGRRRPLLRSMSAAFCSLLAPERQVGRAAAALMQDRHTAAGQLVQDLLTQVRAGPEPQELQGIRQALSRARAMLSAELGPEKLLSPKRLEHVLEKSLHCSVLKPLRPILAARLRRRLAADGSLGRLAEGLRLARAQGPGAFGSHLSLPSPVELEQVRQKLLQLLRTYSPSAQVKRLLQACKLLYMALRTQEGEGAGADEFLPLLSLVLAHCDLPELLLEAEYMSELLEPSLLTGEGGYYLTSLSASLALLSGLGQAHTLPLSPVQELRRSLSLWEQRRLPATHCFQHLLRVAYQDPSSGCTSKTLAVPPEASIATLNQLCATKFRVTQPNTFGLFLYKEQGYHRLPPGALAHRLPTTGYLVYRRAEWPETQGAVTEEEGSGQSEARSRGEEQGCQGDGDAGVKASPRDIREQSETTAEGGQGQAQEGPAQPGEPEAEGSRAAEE

HeLa = test: HeLa cell cytotoxicity, dose response, cytotoxicity control for MITF activator project, CellTiter-Glo luminescence, cherry-pick samples (AID 540259); type: functional, cell-based; details: Homo sapiens
[4] = Luminescence Cell-Based Dose Retest to Confirm Inhibitors of Cancer Stem Cells. [Related pubchem assays (depositor defined):AID2717, AID2721]; type: functional; details: Homo sapiens
[5] = target: T2, Heat shock factor protein 1 (Mus musculus, UniProt P38532); test: HSF1 potentiators in luciferase reporter cells, confirmation, cell-based, NIH3T3, luminescence, dose retest (AID 435004); type: functional;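 note: stress induced by proteasome inhibitor MG132 added 30 min after compound; luciferase reporter driven by HSF1 response element in NIH3T3 cells; actives raise luminescence as potentiators of the MG132 stress response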
T2 sequence (P38532 whole entry): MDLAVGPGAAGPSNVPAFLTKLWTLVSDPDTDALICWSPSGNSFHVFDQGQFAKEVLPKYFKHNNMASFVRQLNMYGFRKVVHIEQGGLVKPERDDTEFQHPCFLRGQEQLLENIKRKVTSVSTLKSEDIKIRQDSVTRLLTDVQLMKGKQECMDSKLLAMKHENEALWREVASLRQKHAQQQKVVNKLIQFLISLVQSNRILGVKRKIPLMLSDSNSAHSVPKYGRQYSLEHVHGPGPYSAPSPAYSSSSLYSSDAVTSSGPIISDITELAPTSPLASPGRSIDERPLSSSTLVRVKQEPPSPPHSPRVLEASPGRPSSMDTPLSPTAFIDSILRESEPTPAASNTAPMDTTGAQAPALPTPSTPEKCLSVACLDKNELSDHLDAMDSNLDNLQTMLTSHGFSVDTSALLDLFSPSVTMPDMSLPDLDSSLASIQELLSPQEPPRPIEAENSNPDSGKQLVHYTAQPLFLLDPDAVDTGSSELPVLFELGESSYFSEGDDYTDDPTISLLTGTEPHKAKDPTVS

Vero [6] = test: cells; type: functional, cell-based; details: Chlorocebus sabaeus
Vero [7] = test: cells; type: functional; details: Chlorocebus sabaeus
Protein Wnt-3a = Protein Wnt-3a (Mus musculus, UniProt P27467); test: Wnt3a-driven reporter signaling inhibition, dose response, selectivity assay for Gli-SUFU antagonist project, Wnt-LIGHT cells, luminescence (AID 651570); type: functional; details: read-out: IC50_Mean;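 note: Wnt-LIGHT reporter cells stimulated with conditioned medium from Wnt3a-producing cells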
Protein Wnt-3a, sequence (P27467 whole entry): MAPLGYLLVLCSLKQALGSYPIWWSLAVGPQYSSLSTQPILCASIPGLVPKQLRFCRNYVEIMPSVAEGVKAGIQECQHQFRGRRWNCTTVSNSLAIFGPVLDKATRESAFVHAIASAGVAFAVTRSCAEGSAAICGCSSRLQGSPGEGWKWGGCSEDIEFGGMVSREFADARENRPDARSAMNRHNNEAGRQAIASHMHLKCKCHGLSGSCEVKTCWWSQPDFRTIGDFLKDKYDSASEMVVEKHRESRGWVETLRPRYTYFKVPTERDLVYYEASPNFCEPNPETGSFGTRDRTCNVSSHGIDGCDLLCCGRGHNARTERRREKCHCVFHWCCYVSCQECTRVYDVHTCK

Tumor necrosis factor = Tumor necrosis factor (Homo sapiens, UniProt P01375); test: TNFa-triggered NF-kB activation inhibitors, SAR follow-up, cell-based, revised (AID 2337); type: functional
Tumor necrosis factor, sequence (P01375 whole entry, the tested form may be a part): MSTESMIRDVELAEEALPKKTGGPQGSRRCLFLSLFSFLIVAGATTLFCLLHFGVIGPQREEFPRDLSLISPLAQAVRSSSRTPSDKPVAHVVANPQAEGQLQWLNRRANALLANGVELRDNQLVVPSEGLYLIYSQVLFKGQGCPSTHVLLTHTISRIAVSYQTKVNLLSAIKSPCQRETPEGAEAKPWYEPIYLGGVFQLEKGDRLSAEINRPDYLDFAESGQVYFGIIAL

[8] = target: T3, Nucleotide-binding oligomerization domain-containing protein 1 (Homo sapiens, UniProt Q9Y239); test: NOD1 signaling inhibitors, SAR follow-up, revised (AID 2333); type: functional
T3 sequence (Q9Y239 whole entry): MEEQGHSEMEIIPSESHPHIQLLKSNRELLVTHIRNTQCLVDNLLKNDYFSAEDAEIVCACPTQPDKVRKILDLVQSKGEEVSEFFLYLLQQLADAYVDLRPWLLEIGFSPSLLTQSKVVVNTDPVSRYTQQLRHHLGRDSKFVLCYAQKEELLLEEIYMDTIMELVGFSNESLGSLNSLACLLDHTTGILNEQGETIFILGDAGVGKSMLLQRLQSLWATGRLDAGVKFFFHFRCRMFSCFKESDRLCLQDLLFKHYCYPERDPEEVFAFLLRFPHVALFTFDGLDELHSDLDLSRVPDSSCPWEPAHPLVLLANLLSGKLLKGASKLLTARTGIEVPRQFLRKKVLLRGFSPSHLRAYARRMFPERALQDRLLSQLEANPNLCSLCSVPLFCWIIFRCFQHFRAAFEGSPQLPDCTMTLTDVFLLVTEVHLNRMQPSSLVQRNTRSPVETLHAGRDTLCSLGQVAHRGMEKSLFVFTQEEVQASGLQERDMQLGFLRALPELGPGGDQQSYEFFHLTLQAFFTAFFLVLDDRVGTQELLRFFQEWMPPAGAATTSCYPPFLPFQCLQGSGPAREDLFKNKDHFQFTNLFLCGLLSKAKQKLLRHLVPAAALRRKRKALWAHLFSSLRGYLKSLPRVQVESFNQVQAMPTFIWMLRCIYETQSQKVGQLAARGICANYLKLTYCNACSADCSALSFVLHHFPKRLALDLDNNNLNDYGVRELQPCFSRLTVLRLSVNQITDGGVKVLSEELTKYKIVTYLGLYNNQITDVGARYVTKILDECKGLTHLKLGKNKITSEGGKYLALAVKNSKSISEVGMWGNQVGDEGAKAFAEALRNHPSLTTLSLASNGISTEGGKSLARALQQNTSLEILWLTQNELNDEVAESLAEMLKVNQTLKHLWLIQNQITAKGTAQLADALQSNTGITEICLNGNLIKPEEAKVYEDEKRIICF

INS1 = test: beta cell apoptosis inhibitors, cytokine rescue, dose response, luminescence, retest (AID 449756); type: functional, cell-based; details: Rattus norvegicus;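 note: cell death triggered by IL-1 beta plus TNF-alpha plus IFN-gamma mixture; protective hits raise ATP signal compared with cytokine alone wells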
Galanin receptor type 3 = Galanin receptor type 3 (Homo sapiens, UniProt O60755); test: Fluorescence-based cell-based primary high throughput dose response assay to identify antagonists of the Galanin Receptor 3 (GalR3).; type: functional
Galanin receptor type 3, sequence (O60755 whole entry): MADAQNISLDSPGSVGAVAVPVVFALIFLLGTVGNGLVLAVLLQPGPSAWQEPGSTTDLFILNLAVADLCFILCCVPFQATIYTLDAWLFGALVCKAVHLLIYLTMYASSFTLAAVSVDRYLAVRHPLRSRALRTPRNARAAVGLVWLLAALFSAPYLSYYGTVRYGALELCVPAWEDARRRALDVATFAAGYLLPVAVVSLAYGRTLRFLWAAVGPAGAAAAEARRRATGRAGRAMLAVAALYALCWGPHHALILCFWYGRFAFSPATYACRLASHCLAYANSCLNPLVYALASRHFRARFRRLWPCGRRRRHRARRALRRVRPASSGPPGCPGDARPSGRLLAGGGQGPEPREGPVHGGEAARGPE

cells [9] = type: functional, cell-based; details: HEK-CNG
[10] = target: T4, COUP transcription factor 2 (Homo sapiens, UniProt P24468); test: Luminescence-based cell-based high throughput dose response assay to identify inhibitors of COUP-TFII (NR2F2).; type: functional;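 note: HEK293 cells transiently cotransfected with COUP-TFII expression vector and reporter; luciferase reporter luminescence driven by COUP-TFII from the pX2-168 reporter plasmid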
T4 sequence (P24468 whole entry): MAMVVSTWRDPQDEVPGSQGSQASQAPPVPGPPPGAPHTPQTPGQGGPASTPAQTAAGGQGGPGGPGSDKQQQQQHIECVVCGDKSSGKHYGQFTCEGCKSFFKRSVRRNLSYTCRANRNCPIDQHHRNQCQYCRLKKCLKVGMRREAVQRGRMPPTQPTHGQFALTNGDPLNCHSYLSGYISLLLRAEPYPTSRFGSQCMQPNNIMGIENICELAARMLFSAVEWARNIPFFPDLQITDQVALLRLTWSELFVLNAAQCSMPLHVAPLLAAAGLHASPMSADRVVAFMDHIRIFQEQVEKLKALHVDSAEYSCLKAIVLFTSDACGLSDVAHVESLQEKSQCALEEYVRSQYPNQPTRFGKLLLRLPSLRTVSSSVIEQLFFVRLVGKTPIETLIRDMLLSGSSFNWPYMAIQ

HEK293 [11] = test: cells; details: Homo sapiens
[12] = microbe, parasite or virus in culture; type: functional; details: Mycobacterium tuberculosis
[13] = target: T5, Ubiquitin-conjugating enzyme E2 N (Homo sapiens, UniProt P61088); type: functional;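 note: Dose-response confirmation in a TR-FRET assay detecting UBC13-driven polyubiquitin chain formation, inhibition measured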
T5 sequence (P61088 whole entry): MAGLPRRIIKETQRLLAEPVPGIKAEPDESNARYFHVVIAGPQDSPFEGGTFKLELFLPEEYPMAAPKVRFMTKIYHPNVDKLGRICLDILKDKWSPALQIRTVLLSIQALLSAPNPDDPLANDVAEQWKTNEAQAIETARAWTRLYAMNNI

Melanocortin receptor 4 = Melanocortin receptor 4 (Homo sapiens, UniProt P32245); type: functional, cell-based;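 note: Cell-based assay with luminescence read-out, confirmatory dose-response testing for agonist activity of biased ligands at MC4R; human U2OS cells with tagged receptor and beta-arrestin; potency of agonists that increase receptor coupling to beta-arrestin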
Melanocortin receptor 4, sequence (P32245 whole entry): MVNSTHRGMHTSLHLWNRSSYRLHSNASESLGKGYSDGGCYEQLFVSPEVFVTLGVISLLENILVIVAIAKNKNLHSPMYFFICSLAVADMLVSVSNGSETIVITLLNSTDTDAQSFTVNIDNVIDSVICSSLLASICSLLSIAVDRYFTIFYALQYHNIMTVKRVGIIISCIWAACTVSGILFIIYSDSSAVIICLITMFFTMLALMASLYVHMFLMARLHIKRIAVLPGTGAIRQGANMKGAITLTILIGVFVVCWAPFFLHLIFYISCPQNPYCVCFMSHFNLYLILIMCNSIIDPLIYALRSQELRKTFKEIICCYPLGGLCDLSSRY

Paired box protein Pax-8 = Paired box protein Pax-8 (Homo sapiens, UniProt Q06710); test: inhibitors of PAX8-driven TPO luciferase reporter, dose response, RMG-I cells, cherry-pick (AID 687027); type: functional, cell-based;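 note: luciferase reporter driven by Pax8 target thyroperoxidase promoter measured by SteadyGlo luminescence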
Paired box protein Pax-8, sequence (Q06710 whole entry): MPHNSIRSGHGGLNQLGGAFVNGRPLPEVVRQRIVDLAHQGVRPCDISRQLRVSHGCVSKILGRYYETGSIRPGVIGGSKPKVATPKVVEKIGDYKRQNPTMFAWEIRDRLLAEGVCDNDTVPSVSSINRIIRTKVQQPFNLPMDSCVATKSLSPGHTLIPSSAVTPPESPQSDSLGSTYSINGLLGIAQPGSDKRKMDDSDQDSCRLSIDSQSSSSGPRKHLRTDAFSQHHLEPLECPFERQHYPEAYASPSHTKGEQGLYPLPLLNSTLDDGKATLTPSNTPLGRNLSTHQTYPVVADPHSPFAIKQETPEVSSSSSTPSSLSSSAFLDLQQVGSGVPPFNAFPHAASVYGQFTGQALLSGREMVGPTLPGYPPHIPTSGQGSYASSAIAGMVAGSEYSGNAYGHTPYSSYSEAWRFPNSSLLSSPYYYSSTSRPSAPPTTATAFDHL

[14] = NIH:OVCAR-3 ovarian cancer cell cytotoxicity, dose response, PAX8 inhibitor project, plate reader, dry powder samples (AID 743044); type: functional, cell-based
[15] = IGROV1 ovarian cancer cell cytotoxicity, dose response, PAX8 inhibitor project, plate reader, dry powder samples (AID 743043); type: functional, cell-based; details: IGROV-1
[16] = cytotoxicity in OVCAR8 ovarian cancer cells, dose response, PAX8 project, cell-based, plate reader, dry powder samples (AID 743197); type: functional; details: OVCAR-8
[17] = target: T6, Oxysterols receptor LXR-beta (Homo sapiens, UniProt P55055); type: functional, cell-based;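 note: agonist activity at LXR measured by a cell-based luminescence readout across a dose range, run as a counterscreen for daf-12 agonists; HEK293 cells with Gal4-LXR fusion and GAL4-driven luciferase reporter; potency for activation of Gal4-LXR reporter so compounds are agonists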
T6 sequence (P55055 whole entry): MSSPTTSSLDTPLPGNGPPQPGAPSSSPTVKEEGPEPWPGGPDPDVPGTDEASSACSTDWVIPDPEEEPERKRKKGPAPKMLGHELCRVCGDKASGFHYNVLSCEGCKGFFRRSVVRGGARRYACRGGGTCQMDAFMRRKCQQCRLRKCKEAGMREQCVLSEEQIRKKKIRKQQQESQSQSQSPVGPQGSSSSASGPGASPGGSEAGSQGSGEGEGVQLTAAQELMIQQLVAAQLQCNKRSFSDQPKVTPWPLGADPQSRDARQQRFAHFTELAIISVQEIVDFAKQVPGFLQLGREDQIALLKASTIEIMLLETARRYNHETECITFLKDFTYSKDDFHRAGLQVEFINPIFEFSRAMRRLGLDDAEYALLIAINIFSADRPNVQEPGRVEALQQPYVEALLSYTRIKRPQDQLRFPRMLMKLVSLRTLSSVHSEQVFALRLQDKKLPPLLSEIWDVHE

[18] = T. cruzi growth inhibition in host cells, dose response, cell-based, plate reader, dry powder, set 2 (AID 652275); type: functional
cells [19] = type: functional, cell-based
cells [20] = type: functional, cell-based; remark: listed apart in the source

## CCn1cc(/C=C/C(=O)c2ccc(O)cc2)c(C)n1
HEK293 [1]
  IC50: > 67.5 µM (inactive)
[2]
  IC50: > 67.5 µM (inactive)

## COc1ccccc1OCc1ccc(C(=O)N2CCN(C(=O)c3ccco3)CC2)cc1
[3]
  IC50: 36 µM (inactive)

## CC1CCN(C(=O)c2cc(-c3ccccc3O)on2)CC1
HeLa
  AC50: 129 µM (active)

## COc1ccc(/C=C/C(=O)c2ccc(NS(=O)(=O)c3ccc(C)cc3)cc2)cc1O
[4]
  AC50: 2.69 µM (active)
[5]
  EC50: 32.2 µM (active)
Vero [6]
  IC50: > 25 µM (active)
Vero [7]
  CC50: 17.9 µM (active)

## COC(=O)c1ccc(COC(=O)C23CC4CC(CC(O)(C4)C2)C3)o1
[3]
  IC50: 17.4 µM (inactive)

## CCS(=O)(=O)N1CCN(c2nc(-c3ccccc3)cs2)CC1
HeLa
  AC50: 61.6 µM (active)

## O=C(Nc1nc(-c2cccs2)cs1)c1cccc(S(=O)(=O)N2CCCCCC2)c1
Protein Wnt-3a
  IC50: 19.2 µM (active)

## Cn1nccc1C(=O)NC1CCCc2c1cnn2-c1ccc(C(C)(C)C)cc1 (stereo not drawn)
Tumor necrosis factor
  IC50: 0.2 µM (active)
[8]
  IC50: 0.232 µM (active)
INS1
  AC50: 1.62 µM (active)
Galanin receptor type 3
  IC50: 0.143 µM (active)
Cells [9]
  EC50: > 29.9 µM (inactive)
[10]
  IC50: 1.25 µM (active)
HEK293 [11]
  IC50: 16.4 µM (active)

## COc1ccc(C(=O)Nc2nncs2)cc1S(=O)(=O)N1CC(c2ccccc2)CC1=O (stereo not drawn)
HEK293 [1]
  IC50: > 67.5 µM (inactive)
[2]
  IC50: > 67.5 µM (inactive)

## CN(C)CCOc1ccc(-c2c(-c3ccsc3)sc3ccccc23)cc1
[12]
  CC50: 11.3 µM (active)
[4]
  AC50: 3.47 µM (active)
[13]
  IC50: > 20 µM (inactive)
Melanocortin receptor 4
  EC50: > 89.2 µM (inactive)

## CCN(CC)C(=O)OCc1c(-c2ccccc2)ncc2ccccc12
HeLa
  AC50: 110 µM (active)

## CC(=O)Nc1cc(-c2ccc(F)cc2)cn2c(-c3ccc(F)c(Cl)c3)cnc12
Melanocortin receptor 4
  EC50: > 89.2 µM (inactive)

## C[C@@H]1CN([C@H](C)CO)C(=O)c2cc(NC(=O)Nc3ccccc3)ccc2O[C@@H](C)CCCCO[C@@H]1CN(C)Cc1ccc(C(F)(F)F)cc1
Paired box protein Pax-8
  AC50: 6.35 µM (active)
[14]
  AC50: 28.6 µM (active)
[15]
  AC50: 51.4 µM (active)
[16]
  AC50: 61.8 µM (active)

## N#C/C(=N\Nc1ccc(Cl)cc1)C(=N)N1CCCCCC1
HEK293 [1]
  IC50: > 0.833 µM (active)
[2]
  IC50: > 67.5 µM (inactive)
[17]
  EC50: > 67.5 µM (inactive)

## CN(C)CC#Cc1cccc(-c2nc(C(=O)NCCCN3CCOCC3)cc3c2[C@H](CCO)N([S+]([O-])C(C)(C)C)C3)c1 (stereo partly drawn)
[18]
  AC50: 1.24 µM (active)

## CC(C)N1C[C@H](C)[C@@H](CN(C)Cc2ccc(Cl)cc2)Oc2c(cccc2-c2nnn(-c3ccncc3)n2)C1=O
[18]
  AC50: 0.12 µM (active)

## Oc1ccc(Cl)cc1/C=N/CCc1ccccc1
Cells [19]
  IC50: 9.79 µM (active)
Cells [20]
  EC50: > 29.9 µM (inactive)

## CCCn1c2c(c(=N)c3c1CCC3)CCCC2
Protein Wnt-3a
  IC50: 37 µM (inactive)
